Test results from US11820822B2, “Methods for sensitizing cancer cells to T cell-mediated killing by modulating molecular pathways” (DANA-FARBER CANCER INSTITUTE, INC., priority 2017, dated 2023).

Tests used:
[1] = system: B16F10-Cas9 cells co-cultured with Pmel-1 T cells; experiment: Genome-scale CRISPR-Cas9 screen, selection with Pmel-1 T cells; type: cell-based, mouse; conditions: Table 3; B16F10-Cas9 cells pre-treated with IFNγ, co-cultured with Pmel-1 T cells 1:1 for three days; negative = depleted, positive = enriched
[2] = system: B16F10-Cas9 cells pulsed with SIINFEKL peptide, co-cultured with OT-I T cells; experiment: Genome-scale CRISPR-Cas9 screen, selection with OT-I T cells; type: cell-based, mouse; conditions: Table 3; B16F10-Cas9 cells pulsed with SIINFEKL, co-cultured with OT-I T cells 1:1 for one day; negative = depleted, positive = enriched

Row | Sequence | Pmel+ (sgRNA Log(2) fold change, Pmel-1 selection versus control T cells) [1] | OT1 (sgRNA Log(2) fold change, OT-I selection versus control T cells) [2]
1 | GCAAATGTAGAAATGTCGTG (chemistry not fully specified) | -0.65 | -2.34
2 | GCAAGAGGTTATCAAACACG (chemistry not fully specified) | -0.79 | -2.17
3 | GCACTGCTCTCATAACCCAT (chemistry not fully specified) | 3.01 | -0.77
4 | GCAGGGGTCTCCTTATGTCG (chemistry not fully specified) | -1.13 | -2.67
5 | GCCAACATCTGCTTACTCGC (chemistry not fully specified) | -1.97 | -2.55
6 | GCCAGCTTTCTCGCACGTGG (chemistry not fully specified) | -2.01 | -0.61
7 | GCCCTTTACTTTCAGTACGG (chemistry not fully specified) | -0.93 | -2.52
8 | GCCTGTACCACGCAGCCAAG (chemistry not fully specified) | 0.00 | -2.37
9 | GCGTCGTCGACTTATGACTT (chemistry not fully specified) | -0.05 | -3.36
10 | GCTCAAGTACTCGCCCGACC (chemistry not fully specified) | -0.69 | -2.85
11 | GCTCACCACGGGCTGCAACG (chemistry not fully specified) | 2.34 | 0.43
12 | GCTCGATGGATAGCATTCAC (chemistry not fully specified) | 0.17 | -3.98
13 | GCTGCAGAGGCAGTTTGATG (chemistry not fully specified) | -0.70 | -3.06
14 | GCTGCCCCGCAGGATCATCA (chemistry not fully specified) | -2.00 | -2.94
15 | GCTGGGGAACTCAATTATAG (chemistry not fully specified) | 2.03 | -0.78
16 | GCTGTGGGGACTGCTAAAAG (chemistry not fully specified) | 2.22 | -1.12
17 | GCTGTTACTCCAGAGACACA (chemistry not fully specified) | -2.27 | -0.23
18 | GGAAACGTGGCATGTCTCGG (chemistry not fully specified) | 2.66 | 1.93
19 | GGAATCCCTGTGCTGATCGT (chemistry not fully specified) | -0.49 | -2.76
20 | GGACAAGACATGGAGACAGA (chemistry not fully specified) | 0.83 | -2.11
21 | GGACACCAAGTTATTCCGTG (chemistry not fully specified) | -2.89 | -3.20
22 | GGACGAGAGCAACATAAACA (chemistry not fully specified) | 2.15 | -0.03
23 | GGATAGACGCCCAGCCACTG (chemistry not fully specified) | 9.31 | 3.32
24 | GGATCCTGGCGATTCAACAT (chemistry not fully specified) | 0.74 | -3.11
25 | GGCCCCGACTCAGACCCGCG (chemistry not fully specified) | 3.60 | 5.15
26 | GGTATTCCCAGCATACGACA (chemistry not fully specified) | 5.25 | 3.32

Row | Sequence | Pmel+ (sgRNA Log(2) fold change, Pmel-1 selection versus control T cells) [1] | OT1 (sgRNA Log(2) fold change, OT-I selection versus control T cells) [2]
27 | GGTCATACTTAAAAGCACAA (chemistry not fully specified) | -0.81 | -2.07
28 | GGTTCCTTGCGGGACTCCGT (chemistry not fully specified) | -2.53 | -3.31
29 | GGTTCGCTTCTTCCAAACCA (chemistry not fully specified) | -2.08 | -2.41
30 | GTAGACAACAACATTCGCAG (chemistry not fully specified) | 2.97 | 0.33
31 | GTATAAGCCATTACGACGCA (chemistry not fully specified) | -1.52 | -2.81
32 | GTCTCTAGCAAAGTCCACGC (chemistry not fully specified) | 3.25 | -0.40
33 | GTCTTGTGCAAAAAGCCCGA (chemistry not fully specified) | -0.15 | -2.54
34 | GTGAGCCTGAGGAACCTGCT (chemistry not fully specified) | 3.08 | 1.01
35 | GTTTCTGGCATCCAAAGTAG (chemistry not fully specified) | 0.80 | -2.50
36 | TAAAAGTCCCTCCCTCAAAG (chemistry not fully specified) | 0.00 | -2.56
37 | TAAGCGTTGTTGACTACATG (chemistry not fully specified) | 0.00 | -3.02
38 | TAATTGCTGAGAATGTACTC (chemistry not fully specified) | 0.00 | -2.54
39 | TACTGATCATAAACGAACCA (chemistry not fully specified) | 0.25 | -3.34
40 | TAGCCGACAGAGATGTACCG (chemistry not fully specified) | 3.52 | 0.05
41 | TATACCAATACGCAAATACC (chemistry not fully specified) | 4.34 | 4.07
42 | TATGGAGCGGTGTATGCCCG (chemistry not fully specified) | 1.27 | -3.33
43 | TATGTGGAGCATAACCGGAG (chemistry not fully specified) | 3.80 | 2.95
44 | TCACTGCGTACGCGTCACTG (chemistry not fully specified) | 0.81 | -3.44
45 | TCAGCAACTGAGAACTCACT (chemistry not fully specified) | -2.37 | -1.37
46 | TCAGGATGCTGTGATAAGCG (chemistry not fully specified) | 2.98 | -0.67
47 | TCATAGCCAGAGCATACTCT (chemistry not fully specified) | -1.33 | -3.24
48 | TCATCTTCGGAGGGCTCAAG (chemistry not fully specified) | 2.75 | 0.18
49 | TCCCTTTGATGTGTTCCACG (chemistry not fully specified) | 4.23 | 3.40
50 | TCCGAACCGAATCATCACTG (chemistry not fully specified) | 10.23 | 3.59
51 | TCGGCTTCCCATTCTCCGGT (chemistry not fully specified) | 4.33 | 5.48
52 | TCTGTTGAAAGAGCGCCAAA (chemistry not fully specified) | -3.36 | -0.71
